Tests used:
[1] = molecular target: p38 MAPKα (Homo sapiens (Human), UniProt Q16539); test: Enzyme binding assay (Kinomescan) p38 MAPKα; conditions: read-out: % Inhibition for kinase binding at 500 nM p38 MAPKα
Procedure: (§1) The kinase enzyme binding activities of compounds disclosed herein were determined using a proprietary assay which measures active site-directed competition binding to an immobilized ligand (Fabian, M. A. et al., Nature Biotechnol., 2005, 23:329-336). These assays were conducted by DiscoverX (formerly Ambit; San Diego, Calif.). The percentage inhibition produced by incubation with a test compound is calculated relative to the non-inhibited control.

[2] = molecular target: p38 MAPKγ (Homo sapiens (Human), UniProt P53778); test: Enzyme binding assay (Kinomescan) p38 MAPKγ; conditions: read-out: % Inhibition for kinase binding at 500 nM p38 MAPKγ
p38 MAPKγ, sequence (P53778 whole entry): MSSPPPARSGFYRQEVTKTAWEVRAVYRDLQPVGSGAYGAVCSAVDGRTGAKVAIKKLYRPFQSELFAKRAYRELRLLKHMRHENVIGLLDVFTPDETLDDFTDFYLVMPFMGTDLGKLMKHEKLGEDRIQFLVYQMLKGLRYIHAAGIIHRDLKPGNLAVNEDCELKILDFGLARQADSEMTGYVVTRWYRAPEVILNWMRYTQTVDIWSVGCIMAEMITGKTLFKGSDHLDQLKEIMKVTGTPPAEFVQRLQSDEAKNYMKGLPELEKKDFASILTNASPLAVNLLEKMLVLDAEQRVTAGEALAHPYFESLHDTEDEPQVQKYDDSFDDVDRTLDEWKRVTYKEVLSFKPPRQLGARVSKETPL
Procedure: (§2) These assays were conducted by DiscoverX (formerly Ambit; San Diego, Calif.). The percentage inhibition produced by incubation with a test compound is calculated relative to the non-inhibited control.

[3] = molecular target: cSrc (Homo sapiens (Human), UniProt P12931); test: Enzyme binding assay (Kinomescan) cSrc; conditions: read-out: % Inhibition for kinase binding at 500 nM cSrc
cSrc, sequence (P12931 whole entry, looked up): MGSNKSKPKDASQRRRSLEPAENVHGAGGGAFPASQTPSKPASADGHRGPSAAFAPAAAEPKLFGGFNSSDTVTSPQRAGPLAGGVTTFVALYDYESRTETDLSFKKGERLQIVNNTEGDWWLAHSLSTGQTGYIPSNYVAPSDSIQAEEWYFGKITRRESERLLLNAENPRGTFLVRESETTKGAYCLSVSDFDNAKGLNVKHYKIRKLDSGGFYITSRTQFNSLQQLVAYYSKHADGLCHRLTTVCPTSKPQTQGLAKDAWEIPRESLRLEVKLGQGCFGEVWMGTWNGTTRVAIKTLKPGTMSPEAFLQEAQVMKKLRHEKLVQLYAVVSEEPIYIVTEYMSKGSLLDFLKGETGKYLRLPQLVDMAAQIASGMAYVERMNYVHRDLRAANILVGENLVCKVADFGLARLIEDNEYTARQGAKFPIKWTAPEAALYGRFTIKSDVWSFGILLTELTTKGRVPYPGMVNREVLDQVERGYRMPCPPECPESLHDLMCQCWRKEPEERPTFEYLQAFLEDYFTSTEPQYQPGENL
Procedure: as §2

[4] = molecular target: Syk (Homo sapiens (Human), UniProt P43405); test: Enzyme binding assay (Kinomescan) Syk; conditions: read-out: % Inhibition for kinase binding at 500 nM Syk
Procedure: as §1

[5] = molecular target: B-Raf (Homo sapiens (Human), UniProt P15056); test: Enzyme binding assay (Kinomescan) B-Raf; conditions: read-out: % Inhibition for kinase binding at 500 nM B-Raf
B-Raf, sequence (P15056 whole entry): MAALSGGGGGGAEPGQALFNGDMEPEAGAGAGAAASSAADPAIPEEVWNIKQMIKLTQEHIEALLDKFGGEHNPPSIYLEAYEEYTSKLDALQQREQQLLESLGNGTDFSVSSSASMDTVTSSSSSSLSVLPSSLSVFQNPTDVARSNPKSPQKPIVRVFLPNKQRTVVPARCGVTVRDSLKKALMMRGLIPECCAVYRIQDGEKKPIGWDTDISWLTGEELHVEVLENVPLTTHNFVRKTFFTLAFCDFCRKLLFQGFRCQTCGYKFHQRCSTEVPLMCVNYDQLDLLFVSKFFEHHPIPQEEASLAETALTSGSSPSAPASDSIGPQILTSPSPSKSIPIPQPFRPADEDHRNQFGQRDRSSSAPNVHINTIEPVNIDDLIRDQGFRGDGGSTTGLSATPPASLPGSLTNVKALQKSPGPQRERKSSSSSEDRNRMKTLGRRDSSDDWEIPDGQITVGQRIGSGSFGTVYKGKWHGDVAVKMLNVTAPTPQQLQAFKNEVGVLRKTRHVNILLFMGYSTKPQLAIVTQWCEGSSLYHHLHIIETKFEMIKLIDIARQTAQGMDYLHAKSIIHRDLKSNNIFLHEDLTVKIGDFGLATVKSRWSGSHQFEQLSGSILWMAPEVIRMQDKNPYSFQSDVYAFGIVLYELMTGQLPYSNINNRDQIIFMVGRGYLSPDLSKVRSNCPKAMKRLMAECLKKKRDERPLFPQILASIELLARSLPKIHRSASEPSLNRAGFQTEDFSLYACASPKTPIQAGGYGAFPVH
Procedure: as §2

p38 MAPKα, sequence (Q16539 whole entry): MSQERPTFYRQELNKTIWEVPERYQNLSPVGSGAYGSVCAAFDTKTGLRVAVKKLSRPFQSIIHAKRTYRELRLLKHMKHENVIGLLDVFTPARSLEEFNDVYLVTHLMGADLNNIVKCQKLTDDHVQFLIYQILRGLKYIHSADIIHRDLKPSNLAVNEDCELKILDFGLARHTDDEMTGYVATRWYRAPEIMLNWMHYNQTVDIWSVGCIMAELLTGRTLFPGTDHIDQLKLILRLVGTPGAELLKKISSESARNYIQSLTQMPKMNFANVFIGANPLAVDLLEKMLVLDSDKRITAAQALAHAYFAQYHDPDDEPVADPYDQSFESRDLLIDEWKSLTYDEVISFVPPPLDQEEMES

inhibition at 0.5 µM [1]: 66%
inhibition at 0.5 µM [2]: 52%
inhibition at 0.5 µM [3]: 100%
inhibition at 0.5 µM [4]: 100%
inhibition at 0.5 µM [5]: 0%
SMILES: CC(C)(C)c1cc(NC(=O)Nc2ccc(Oc3ccnc(Nc4ccc5[nH]ncc5c4)n3)c3ccccc23)n(-c2ccc(OCCN3CCOCC3)cc2)n1 [Example 12, 1-(4-((2-((1H-Indazol-5-yl)amino)pyrimidin-4-yl)oxy)naphthalen-1-yl)-3-(3-(tert-butyl)-1-(4-(2-morpholinoethoxy)phenyl)-1H-pyrazol-5-yl)urea]

— patent publication US9249125B2, “Pyrazole derivatives as p38 MAP inhibitors” (RESPIVERT LIMITED, priority 2012, dated 2016)
